{"source": "patent US20250288687A1", "about": "“COMBINATION OF ANTIBODY-DRUG CONJUGATES AND DNMT INHIBITORS” (priority 2022, published 2025)", "key": {"[1]": {"system": "TROP2 and SLFN11 expression", "details": "decitabine treatment; cited from earlier work"}, "[2]": {"system": "DLD-1 xenograft mouse model", "assay": "Antitumor test, IMMU-132 with or without decitabine pre-treatment", "format": "in vivo, BALB/c-nu mice", "details": "IMMU-132 10 mg/kg IV Day 7, 14; with vs without DAC 0.5 mg/kg SC Day 0-4 pre-treatment; Day 28, Welch's t-test; FIG. 15", "procedure": "Female BALB/c-nu mice aged 5 weeks (The Jackson Laboratory Japan, Inc.) were used, following 5 days acclimatization before entry into the study.\n(§1) 3×10^6 of DLD-1 cells suspended in saline were implanted subcutaneously onto the flank of the mice. The major axis and the minor axis of the tumor were measured twice a week with an electronic digital caliper and the tumor volume was calculated by the following equation:\nWhen the tumor volume reached approximately 100-150 mm^3, the tumor-bearing mice were randomly assigned to the treatment groups (Day 0) as shown in Table 2.\nStatistical significance between IMMU-132 group and Decitabine+IMMU-132 group was evaluated using Welch's t-test on the tumor volumes at the day of the final measurement (Day 28).\nDecitabine (DAC) was dissolved with Phosphate-buffered saline (PBS) and subcutaneously administered to the mice. IMMU-132 was dissolved with ABS buffer (10 mM Acetate buffer [pH5.5], 5% sorbitol) and intravenously administered to the tail vein of the mice. The dose volume of the compounds for each mouse was calculated based on the latest individual body weight measured within 2 days before dosing. DAC was subcutaneously administered at 0.5 mg/kg once a day from Day 0 to Day 4 (5 dosing in total). IMMU-132 was intravenously administered at 10 mg/kg to the tail vein on Day 7 and Day 14 (Weekly dosing×2)."}, "[3]": {"system": "xenograft cell lines of metaplastic cancer origin and mesenchymal subtype breast cancer cell lines", "details": "sacituzumab govitecan combined with decitabine; cited from earlier work"}, "DLD-1 cells [4]": {"system": "DLD-1 cells", "assay": "Cell growth inhibition study, DS-1062a with or without decitabine pre-treatment (CellTiter-Glo)", "format": "cell-based, Human", "details": "DAC (1, 0.3, 0.1 μM, 3 days) treated vs untreated cells, DS-1062a 0.1-100 nM, 6 days, FIG. 12A", "procedure": "(§2) Human colorectal cancer cell lines DLD-1 and HCT-15, obtained from American Type Culture Collection (ATCC), were incubated with RPMI1640 medium supplemented with 10% (v/v) heat-inactivated FBS, 1% (v/v) penicillin-streptomycin solution and 1 mM sodium pyruvate (Medium), with or without Decitabine (DAC) (Tokyo Chemical Industry Co., Ltd) at 1, 0.3 and 0.1 μM at 37° C. under 5% CO2 for 3 days. The cells were harvested and re-seeded at 1000 cells/80 μL/well into 96-well black clear bottom plates, and incubated overnight at 37° C. under 5% CO2. Then 20 μL of the DS-1062a solutions diluted with the Medium at the concentrations from 500 nM to 0.5 nM were added into the wells and incubated for 6 days for DLD-1 cells, and for 8 days for HCT-15 cells, respectively. The final concentrations of DS-1062a were 100, 10, 1 and 0.1 nM. After the incubation, the cellular ATP levels were measured using CellTiter-Glo Luminescent Cell Viability Assay (Promega) and a microplate reader.\n(§3) Cell viability, defined as relative percent to the value of DS-1062a non-treated cells in each group treated with or without DAC, was assessed (N=1 (triplicate), mean±SD).\n(§4) Individual cell viability (%) was calculated by the following equation:\n(§5) [formula] • T: individual luminescence intensity of the wells treated with DS-1062a at each concentration • C: mean luminescence intensity of the wells treated without DS-1062a"}, "HCT-15 cells": {"system": "HCT-15 cells", "assay": "Cell growth inhibition study, DS-1062a with or without decitabine pre-treatment (CellTiter-Glo)", "format": "cell-based, Human", "details": "DAC (1, 0.3, 0.1 μM, 3 days) treated vs untreated cells, DS-1062a 0.1-100 nM, 8 days, FIG. 12B", "procedure": "as §2, §3, §4, §5"}, "[5]": {"system": "DLD-1 xenograft mouse model", "assay": "Antitumor test, DS-1062a with or without decitabine pre-treatment", "format": "in vivo, BALB/c-nu mice", "details": "DS-1062a 10 mg/kg IV Day 7; DAC 0.5 mg/kg SC Day 0-4 pretreated vs untreated group; Day 28, Welch's t-test, P<0.05; FIG. 13", "procedure": "Female BALB/c-nu mice aged 5-6 weeks (The Jackson Laboratory Japan, Inc.) were used, following 4 days acclimatisation before entry into the study.\nas §1\nWhen the tumor volume reached approximately 100-150 mm^3, the tumor-bearing mice were randomly assigned to treatment groups (Day 0) as shown in Table 1:\nDecitabine (Tokyo Chemical Industry Co., Ltd) was dissolved and diluted with Phosphate-buffered saline (PBS) and subcutaneously administered to the mice. DS-1062a solution was diluted with ABS buffer (10 mM Acetate buffer [pH5.5], 5% sorbitol) and intravenously administered to the tail vein of the mice. The dose of the compounds for each mouse was calculated based on the individual body weight on the day of dosing. Decitabine was subcutaneously administered at 0.5 mg/kg once a day from Day 0 to Day 4 (5 dosing in total). […] Statistical significance between the ‘DS-1062a’ group and the ‘Decitabine+DS-1062a’ group was evaluated using Welch's t-test on the tumor volumes at the day of the final measurement (Day 28)."}, "DLD-1 cells [6]": {"system": "DLD-1 cells", "assay": "Cell growth inhibition study, DS-1062a with or without azacitidine pre-treatment (CellTiter-Glo)", "format": "cell-based, Human", "details": "AZA (10, 3.3, 1.1 μM, 3 days) treated vs AZA untreated cells, DS-1062a 0.1-100 nM, 6 days, FIG. 14", "procedure": "Human colorectal cancer cell line DLD-1 was incubated with RPMI1640 medium supplemented with 10% (v/v) heat-inactivated FBS (Medium), with or without Azacitidine (AZA) at 10, 3.3 and 1.1 μM at 37° C. under 5% CO2 for 3 days. The cells were harvested and re-seeded at 1000 cells/90 μL/well into a 96-well black clear bottom plate, and incubated overnight at 37° C. under 5% CO2. Then 10 μL of the DS-1062a solutions diluted with the Medium at the concentrations from 1000 nM to 1 nM were added into the wells and incubated for 6 days. The final concentrations of DS-1062a were 100, 10, 1 and 0.1 nM. After the incubation, the cellular ATP levels were measured using CellTiter-Glo Luminescent Cell Viability Assay (Promega Corporation) and a microplate reader.\nCell viability, defined as relative percent to the value of DS-1062a non-treated cells in each group treated with or without AZA, was assessed (N=1 (triplicate), mean±SD).\nIndividual cell viability (%) was calculated by the following equation;\nas §5"}}, "data": [{"compound": "Nc1ncn([C@H]2C[C@H](O)[C@@H](CO)O2)c(=O)n1", "note": "[decitabine, 5-aza-2′-deoxycytidine]", "values": [{"measurement": "TROP2 and SLFN11 expression", "setting": "[1]", "value": "upregulates"}]}, {"compound": "Sacituzumab govitecan [IMMU-132]", "values": [{"measurement": "antitumor activity (tumor volume)", "setting": "[2]", "value": "not significantly different"}, {"measurement": "antitumor efficacy", "setting": "[3]", "value": "enhances"}]}, {"compound": "datopotamab deruxtecan [DS-1062a]", "values": [{"measurement": "cell growth inhibitory activity (cell viability)", "setting": "DLD-1 cells [4]", "value": "enhanced"}, {"measurement": "cell growth inhibitory activity (cell viability)", "setting": "HCT-15 cells", "value": "enhanced"}, {"measurement": "antitumor activity (tumor volume)", "setting": "[5]", "value": "significantly enhanced"}, {"measurement": "cell growth inhibitory activity (cell viability)", "setting": "DLD-1 cells [6]", "value": "enhanced"}]}]}
